Data on eight molecules can be found in US20230058634A1, “PREVENTION OF PLATELET ACTIVATION AND CELL DIFFERENTIATION DURING THE PROCESSING OF BLOOD AND BLOOD-RELATED COMPOSITIONS” (GPB Scientific, Inc., priority 2020, published 2023).

The structures appear in SMILES notation.

In one series the test system is CD45+ cells. The series is described as follows: Cell viability in apheresis product by flow cytometry (CD45-PerCP and 7-AAD; % CD45+ cells). The settings on record: FIG. 7 lower panel; 14 mM Citrate, overnight; A23187 at 4 micromolar in DMEM media. The series is classed as cell-based. On the procedure: Cell viability may be determined by flow cytometry using CD45-PerCP and 7-AAD.
FIG. 7: An apheresis product is collected into 14 mM Citrate (ACD-A). […] The calcium ionophore A23187 is used at 4 micromolar in apheresis material resuspended in DMEM media. […] Determination of singlets and aggregates may be done by flow cytometry using side and forward scatter of the CD45+ cell population. Cell viability is determined as the % CD45+ cells.
(In general: Flow cytometry measures light scatter and fluorescence of single cells or particles in a stream.)

For another series, the system named is neutrophils. The settings on record: cited from earlier work.
Another series deals with CD45+ cell population. The series is described as follows: Singlets and aggregates in apheresis product by flow cytometry (side and forward scatter). The series is classed as cell-based. The settings on record: FIG. 7 top panel; 14 mM Citrate (ACD-A), overnight, low/medium/high concentrations, compared to control with no inhibitors.
The test system of another series is cultured cells. As to conditions: at micromolar concentrations; cited from earlier work.
The next series concerns cell aggregates. The experiment in a line: Cell aggregates in apheresis product after 24 h, glass slide under microscope. The series is classed as cell-based. As to conditions: FIG. 10, 14 mM Citrate, GSK484 10 micromolar, DTPA 10 micromolar, Tirofiban 2.5 micrograms/ml.
For another series, the system named is granulocytes. As to conditions: incubation; cited from earlier work.

Procedure for cell aggregates: FIG. 9: An apheresis product is collected in 14 mM Citrate and divided into two different tubes—one with no further addition and a second tube with additional citrate for a final concentration of 28 mM (2X ACD-A). The tubes are left overnight at room temperature under rotation. After 24 h, aliquots of the tubes are spotted on a glass slide and are analyzed under the microscope for the presence of cell aggregates.
FIG. 10: An apheresis product is collected in 14 mM Citrate (ACD-A) and aliquots are taken and incubated with the different inhibitors, or in combination, in different tubes for 24 h. The tubes are left under rotation at room temperature. After 24 h, aliquots of the different tubes are spotted on a glass slide and are analyzed under a microscope for the presence of cell aggregates.

For the molecule `CNc1ccc2oc(C[C@H]3O[C@@]4(CC[C@H]3C)O[C@H]([C@H](C)C(=O)c3ccc[nH]3)[C@H](C)C[C@H]4C)nc2c1C(=O)O` [A23187], in the series with CD45+ cells, the “viability (% CD45+ cells)” value was “affect viability”.

Turning to `CCCCC(CC)CNC(=N)NC(=N)NCCCCCCNC(=N)NC(=N)NCC(CC)CCCC` (stereo not drawn) [Alexidine], the “NETosis after 2 h of incubation” value with neutrophils (after 2 h of incubation) is recorded as “induces NETosis”. Also, the “NET formation induced by ionomycin” value with neutrophils (in neutrophils) is listed as “inhibits NET formation”. Moreover, in the series on neutrophils (without an increase of cytosolic calcium), the “basal level of netosis” value is “inhibits the basal level of netosis”.

In the case of `O=C(O)CN(CCN(CC(=O)O)CC(=O)O)CCN(CC(=O)O)CC(=O)O` [DTPA, diethylenetriaminepentacetic acid], the “aggregation (singlets %)” value in the series on CD45+ cell population is on record as “very effective at all concentrations tested”. In the series on cultured cells, the “apoptosis and cell death” value is “induce apoptosis and cell death”.

On to `COc1cc(C(=O)N2CC[C@@H](O)[C@@H](N)C2)cc2nc(-c3cc4ccccc4n3CC3CC3)n(C)c12` [GSK484], for which, in the series on CD45+ cell population, the “aggregation (singlets %)” value is given as “inhibit aggregation in a dose dependent manner”.

Consider `S=C=Nc1cccc(NC(=S)NCCCCNC(=S)Nc2cccc(N=C=S)c2)c1` [MRS2578], for which, in the series on CD45+ cell population, the “aggregation (singlets %)” value was “inhibit aggregation in a dose dependent manner”.

On to `c1ccc(CN(CCN(Cc2ccccn2)Cc2ccccn2)Cc2ccccn2)nc1` [TPEN, N,N,N′, N′-tetrakis(2-pyridylmethyl)ethylenediamine], for which the “apoptosis and cell death” value with cultured cells was “induce apoptosis and cell death”.

With `CCCCS(=O)(=O)N[C@@H](Cc1ccc(OCCCCC2CCNCC2)cc1)C(=O)O` [Tirofiban, tirofiban], the “formation of cell aggregates” value in the series on cell aggregates was “prevents the formation of cell aggregates”.

Take `C[C@@H](N)[C@H]1CC[C@H](C(=O)Nc2ccncc2)CC1` [Y-27632]: the “NET formation induced by PMA and other challenges” value with neutrophils (pre-treatment) is “inhibits NET formation”. The chemotaxis of granulocytes entry in the series with granulocytes is given as “blocked the chemotaxis”.
